Tests used:
[1] = molecular target: T1, SV40 T Antigen (TAg)-origin complex (Simian virus 40, UniProt P03070); experiment: SV40 T Antigen-DNA binding assay (counterscreen); type: biochemical; settings: assay of Example 7, counterscreen
T1 construct: The Large T Antigen: Purchased from Chimerx, at 2.0 mg/mL; purchased Chimerx
Excerpt: SV40 T Antigen-DNA Binding Assay
This assay measures the formation of an SV40 T Antigen (TAg)-origin complex. The assay was developed by R. D. G. McKay (J. Mol. Biol. (1981) 145, 471–488). In principle, it is very similar to the E2-dependent E1-DNA binding assay (Example 6), with TAg replacing E1 and E2, and a radiolabeled SV40 ori probe replacing the HPV ori probe. The assay is used as a counterscreen for the assay of Example 6, since TAg shares functional homology to E1 and E2, but has very low sequence similarity.
The radiolabeled ori-containing DNA probe was made by PCR using pCH110 plasmid (Pharmacia) as a template. This template encodes the SV40 minimal origin of replication at nucleotides 7098-7023. Primers were “sv40-6958sens”=5′-GCCCCTAACTCCGCCCATCCCGC (SEQ ID NO. 7), and “sv40-206anti”=5′-ACCAGACCGCCACGGCTTACGGC (SEQ ID NO. 8). The PCR product was approximately 370 base pairs long and was radiolabeled using 50 μCi/100 μL PCR reaction of dCTP (α-^33P). […]
The protein-DNA complexes were immunocaptured using an α-TAg monoclonal antibody (PAb 101, subtype IgG2a, hybridoma obtained from ATCC and antibody purified in-house) bound to protein A-SPA beads. […] The plates were spun briefly and the precipitated radiolabeled DNA fragments were counted on a TopCount® counter.

[2] = molecular target: HPV-11 E2 (E2-dependent binding of E1 to the HPV-11 origin of replication) (Human papillomavirus 11, UniProt P04015); experiment: E2-dependent E1 origin-binding assay; type: biochemical; settings: assay of Example 6; read-out: IC50 (inhibitory activity)
HPV-11 E2 (E2-dependent binding of E1 to the HPV-11 origin of replication), sequence (P04015 whole entry): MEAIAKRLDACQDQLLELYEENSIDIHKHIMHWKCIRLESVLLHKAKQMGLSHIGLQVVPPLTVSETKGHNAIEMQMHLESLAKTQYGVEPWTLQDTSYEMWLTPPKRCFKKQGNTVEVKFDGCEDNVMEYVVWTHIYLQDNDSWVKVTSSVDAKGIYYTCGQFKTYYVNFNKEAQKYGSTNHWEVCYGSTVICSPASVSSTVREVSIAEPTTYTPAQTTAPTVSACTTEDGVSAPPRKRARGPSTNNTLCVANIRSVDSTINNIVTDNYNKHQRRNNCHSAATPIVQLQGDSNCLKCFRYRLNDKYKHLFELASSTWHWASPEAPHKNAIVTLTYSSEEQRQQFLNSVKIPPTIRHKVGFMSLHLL
Excerpt: E2-Dependent E1 Origin-Binding Assay
This assay was modeled on a similar assay for SV40 T Antigen described by McKay (J. Mol. Biol., 1981,145:471). A 400 bp radiolabeled DNA probe, containing the HPV-11 origin of replication (Chiang et al., 1992, Proc. Natl. Acad. Sci. USA 89:5799) was produced by PCR, using plasmid pBluescript™ SK encoding the origin (nucleotides 7886-61 of the HPV-11 genome in unique BAMH1 site) as template and primers flanking the origin. Radiolabel was incorporated as [^33P]dCTP. Binding assay buffer consisted of: 20 mM Tris pH 7.6, 100 mM NaCl, 1 mM DTT, 1 mM EDTA.
Other reagents used were protein A-SPA beads (type II, Amersham) and K72 rabbit polyclonal antiserum, raised against a peptide corresponding to the C-terminal 14 amino acids of HPV-11 E1. Following the protocol from Amersham, one bottle of beads was mixed with 25 mL of binding assay buffer. For the assay, a saturating amount of K72 antiserum was added to the beads and the mixture was incubated for 1 h, washed with one volume of binding assay buffer, and then resuspended in the same volume of fresh binding assay buffer. […] After an additional hour of incubation at room temperature, the reactions were centrifuged briefly to pellet the beads and the extent of complex formation was determined by scintillation counting on a Packard TopCount™. […]

T1 sequence (P03070 whole entry, one chain of several): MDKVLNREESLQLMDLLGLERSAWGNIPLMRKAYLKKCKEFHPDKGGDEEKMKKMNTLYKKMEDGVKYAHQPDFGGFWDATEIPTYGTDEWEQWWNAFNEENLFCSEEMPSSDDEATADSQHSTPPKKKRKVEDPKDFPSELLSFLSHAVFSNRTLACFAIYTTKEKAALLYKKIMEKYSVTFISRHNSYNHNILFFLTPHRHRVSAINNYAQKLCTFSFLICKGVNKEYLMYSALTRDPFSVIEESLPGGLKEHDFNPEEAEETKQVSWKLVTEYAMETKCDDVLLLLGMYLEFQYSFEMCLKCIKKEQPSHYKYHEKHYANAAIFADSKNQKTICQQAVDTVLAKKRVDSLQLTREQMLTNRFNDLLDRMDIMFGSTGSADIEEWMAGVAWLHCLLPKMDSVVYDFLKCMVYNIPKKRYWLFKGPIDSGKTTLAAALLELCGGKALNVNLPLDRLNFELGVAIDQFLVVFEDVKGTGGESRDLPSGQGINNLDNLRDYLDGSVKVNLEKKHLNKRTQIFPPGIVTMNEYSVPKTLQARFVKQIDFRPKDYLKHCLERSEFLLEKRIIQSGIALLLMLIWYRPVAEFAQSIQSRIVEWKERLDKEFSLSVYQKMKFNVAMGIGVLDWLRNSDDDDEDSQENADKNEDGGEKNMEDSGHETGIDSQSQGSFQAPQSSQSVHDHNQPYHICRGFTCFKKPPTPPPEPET

With `Cc1ccc2c(c1)C(=O)[C@]1(O[C@@H](c3ccc(Cl)c(Cl)c3)[C@@H](C(=O)Nc3ccc(-c4csnn4)cc3)[C@H]1C(=O)[O-])C2=O.[Na+]` (racemic) [Compound L] the “Selectivity: activity in the SV40 large T antigen assay” value [1] was “lack of activity (or lower potency)” and the IC50 [2] was 180 nM.
